The record followed here is US12396458B2, “Fused ring substituted aromatic compound and preparation method therefor, herbicidal composition, and use thereof” (Qingdao Kingagroot Chemical Compound Co., Ltd., priority 2020, dated 2025).

Assay in all cases: Weeding effect in post-emergence stage (greenhouse pot test)
Format in all cases: in vivo

For one test, the system named is Alopecurus japonicus. Conditions: dose 15 g a.i./ha, 3 weeks after application, fresh weight control rate. An outline of the steps: (§1)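 Greenhouse pot plants sprayed at 2-3 leaf stage (2 weeks after sowing) with compound in acetone/Tween 80 plus 1.5 L/ha methyl oleate EC, at 500, 250, 125, 60, 15, 7.5 g a.i./ha. Fresh-weight growth control scored 3 weeks later on a 0-5 scale (level 5 >85%, level 0 <5%); three replicates averaged.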

The next test deals with Beckmannia syzigachne. Particulars: dose 15 g a.i./ha, 3 weeks after application, fresh weight control rate. An outline of the steps:
as §1

The next test deals with Capsella bursa-pastoris. Conditions: dose 15 g a.i./ha, 3 weeks after application, fresh weight control rate. In short, it runs like this:
as §1

The subject of another test is Conyza japonica. Conditions: fresh weight control rate. In short, it runs like this:
as §1

A further test concerns Digitaria sanguinalis. Conditions: dose 7.5 g a.i./ha, fresh weight control rate. In short, it runs like this: as §1
The subject of a further test is Eleusine indica. Conditions: dose 7.5 g a.i./ha, fresh weight control rate. An outline of the steps: as §1
For another test, the system named is Rorippa indica. Conditions: dose 7.5 g a.i./ha, fresh weight control rate. An outline of the steps: as §1
For another test, the system named is Setaria viridis. Particulars: dose 7.5 g a.i./ha, fresh weight control rate. In short, it runs like this:
as §1

[1] abbreviates: post-emergence control test, dose 7.5 g a.i./ha.
Setting [2] is: post-emergence, dose 15 g a.i./ha, 3 weeks after application.

Take `COC(=O)C12CCCC1C(c1cc(-n3c(=O)cc(C(F)(F)F)n(C)c3=O)c(F)cc1Cl)=NO2` (centres unmarked) [Compound 209]: the “Activity level (growth control rate), Alopecurus japonicus” value in the test on Alopecurus japonicus was 5 (Level 5: growth control rate is above 85%). For the same compound, the “Activity level (growth control rate), Beckmannia syzigachne” value in the test with Beckmannia syzigachne is reported as 5 (Level 5: growth control rate is above 85%). Further, the “Activity level (growth control rate), Capsella bursa-pastoris” value with Capsella bursa-pastoris was 5 (Level 5: growth control rate is above 85%). For the same compound, the “Activity level (growth control rate), Conyza japonica” value (“Activity level … Conyza japonica” for short) with Conyza japonica (setting [1]) is 4 (Level 4: growth control rate is greater than or equal to 60% and less than 85%); in the test with Conyza japonica (setting [2]), 5 (Level 5: growth control rate is above 85%). Besides, the “Activity level (growth control rate), Digitaria sanguinalis” value (shortened to “Activity level … Digitaria sanguinalis”) in the test with Digitaria sanguinalis is 5 (Level 5: growth control rate is above 85%). Further, the “Activity level (growth control rate), Eleusine indica” value (from here on “Activity level … Eleusine indica”) with Eleusine indica is listed as 5 (Level 5: growth control rate is above 85%). In the test on Rorippa indica, the “Activity level (growth control rate), Rorippa indica” value (shortened to “Activity level … Rorippa indica”) was 5 (Level 5: growth control rate is above 85%). Moreover, the “Activity level (growth control rate), Setaria viridis” value (shortened to “Activity level … Setaria viridis”) in the test on Setaria viridis is 5 (Level 5: growth control rate is above 85%).

With `CCOC(=O)C1(C)CC(c2cc(-n3c(=O)n(C)c(=S)n(C)c3=O)c(F)cc2Cl)=NO1` (centres unmarked) [Control compound A, reference compound], in the test with Conyza japonica (setting [1]), the “Activity level … Conyza japonica” value was 2 (Level 2: growth control rate is greater than or equal to 20% and less than 40%). Moreover, in the test on Digitaria sanguinalis, the “Activity level … Digitaria sanguinalis” value is 2 (Level 2: growth control rate is greater than or equal to 20% and less than 40%). For the same compound, in the test on Eleusine indica, the “Activity level … Eleusine indica” value was 3 (Level 3: growth control rate is greater than or equal to 40% and less than 60%). In addition, the “Activity level … Rorippa indica” value with Rorippa indica is 2 (Level 2: growth control rate is greater than or equal to 20% and less than 40%). For the same compound, in the test on Setaria viridis, the “Activity level … Setaria viridis” value is 2 (Level 2: growth control rate is greater than or equal to 20% and less than 40%).

Take `CCOC(=O)C12CCCC1C(c1cc(-n3c(=O)n(C)c(=S)n(C)c3=O)c(F)cc1Cl)=NO2` (centres unmarked) [Compound 3]: the “Activity level (growth control rate), Alopecurus japonicus” value in the test on Alopecurus japonicus is reported as 5 (Level 5: growth control rate is above 85%). The “Activity level (growth control rate), Beckmannia syzigachne” value with Beckmannia syzigachne is recorded as 5 (Level 5: growth control rate is above 85%). Moreover, the “Activity level (growth control rate), Capsella bursa-pastoris” value with Capsella bursa-pastoris is listed as 5 (Level 5: growth control rate is above 85%). The “Activity level … Conyza japonica” value was 3 (Level 3: growth control rate is greater than or equal to 40% and less than 60%) in the test with Conyza japonica (setting [1]); 4 (Level 4: growth control rate is greater than or equal to 60% and less than 85%) with Conyza japonica (setting [2]). For the same compound, the “Activity level … Digitaria sanguinalis” value in the test with Digitaria sanguinalis is 4 (Level 4: growth control rate is greater than or equal to 60% and less than 85%). Further, the “Activity level … Eleusine indica” value in the test on Eleusine indica was 4 (Level 4: growth control rate is greater than or equal to 60% and less than 85%). Also, the “Activity level … Rorippa indica” value with Rorippa indica is 5 (Level 5: growth control rate is above 85%). Moreover, the “Activity level … Setaria viridis” value with Setaria viridis is 4 (Level 4: growth control rate is greater than or equal to 60% and less than 85%).
